Experimental data from the NIST ThermoML archive (doi:10.1021/acs.jced.8b00554).
Numbers after ± are expanded uncertainties.

Assay: xn = mol fraction of the nth substance listed
Conditions: Liquid, Vibrating tube method

CCCCCCCCC [nonane] + CCCO
Conditions	mass density [kg/m3]
333.15 K, 14010 kPa, x2 = 0.2315	704.11 ± 4.5
333.15 K, 14010 kPa, x2 = 0.4272	713.39 ± 4.6
333.15 K, 14010 kPa, x2 = 0.7021	735.32 ± 4.7
333.15 K, 14010 kPa, x2 = 0.8941	760.71 ± 4.9
333.15 K, 15000 kPa, x2 = 0.2315	705.02 ± 4.5
333.15 K, 15010 kPa, x2 = 0.1231	700.86 ± 4.5
333.15 K, 15010 kPa, x2 = 0.3229	708.79 ± 4.5
333.15 K, 15010 kPa, x2 = 0.4272	714.3 ± 4.6
333.15 K, 15010 kPa, x2 = 0.7021	736.23 ± 4.7
333.15 K, 15010 kPa, x2 = 0.8941	761.6 ± 4.9
333.15 K, 16000 kPa, x2 = 0.4272	715.23 ± 4.6
333.15 K, 16000 kPa, x2 = 0.8941	762.49 ± 4.9
333.15 K, 16010 kPa, x2 = 0.1231	701.75 ± 4.5
333.15 K, 16010 kPa, x2 = 0.2315	705.94 ± 4.5
333.15 K, 16010 kPa, x2 = 0.3229	709.71 ± 4.5
333.15 K, 16020 kPa, x2 = 0.7021	737.15 ± 4.7
333.15 K, 17000 kPa, x2 = 0.3229	710.61 ± 4.6
333.15 K, 17010 kPa, x2 = 0.7021	738.03 ± 4.7
333.15 K, 17010 kPa, x2 = 0.8941	763.38 ± 4.9
333.15 K, 17020 kPa, x2 = 0.1231	702.63 ± 4.5
333.15 K, 17020 kPa, x2 = 0.2315	706.85 ± 4.5
333.15 K, 17020 kPa, x2 = 0.4272	716.11 ± 4.6
333.15 K, 18000 kPa, x2 = 0.3229	711.48 ± 4.6
333.15 K, 18000 kPa, x2 = 0.4272	717 ± 4.6
333.15 K, 18000 kPa, x2 = 0.8941	764.23 ± 4.9
333.15 K, 18010 kPa, x2 = 0.1231	703.52 ± 4.5
333.15 K, 18010 kPa, x2 = 0.2315	707.71 ± 4.5
333.15 K, 18010 kPa, x2 = 0.7021	738.91 ± 4.7
333.15 K, 19000 kPa, x2 = 0.1231	704.35 ± 4.5
333.15 K, 19000 kPa, x2 = 0.2315	708.54 ± 4.5
333.15 K, 19000 kPa, x2 = 0.8941	765.08 ± 4.9
333.15 K, 19010 kPa, x2 = 0.3229	712.34 ± 4.6
333.15 K, 19010 kPa, x2 = 0.4272	717.85 ± 4.6
333.15 K, 19010 kPa, x2 = 0.7021	739.77 ± 4.7
333.15 K, 20000 kPa, x2 = 0.2315	709.37 ± 4.5
333.15 K, 20000 kPa, x2 = 0.8941	765.89 ± 4.9
333.15 K, 20010 kPa, x2 = 0.7021	740.63 ± 4.8
333.15 K, 20020 kPa, x2 = 0.1231	705.18 ± 4.5
333.15 K, 20020 kPa, x2 = 0.3229	713.17 ± 4.6
333.15 K, 20020 kPa, x2 = 0.4272	718.7 ± 4.6
343.15 K, 100 kPa, x2 = 0.1231	677.91 ± 4.3
343.15 K, 100 kPa, x2 = 0.2315	680.7 ± 4.4
343.15 K, 100 kPa, x2 = 0.3229	683.88 ± 4.4
343.15 K, 100 kPa, x2 = 0.4272	688.89 ± 4.4
343.15 K, 100 kPa, x2 = 0.7021	710.15 ± 4.5
343.15 K, 100 kPa, x2 = 0.8941	735.96 ± 4.7
343.15 K, 1000 kPa, x2 = 0.2315	681.31 ± 4.4
